Where a SMILES comes first, the peptide text is derived from it. [ ]: non-standard residue; d: D form. The star is where a group is joined. X1 = CCN1/C(=C/C=C/C=C/C2=[N+](CCCCCC(=O)*)c3ccc(S(=O)(=O)[O-])cc3C2(C)C)C(C)(C)c2cc(S(=O)(=O)O)ccc21; βAla = NCCC(=O)O
Experiments:
[1] = test system: AD293; assay: Cytotoxicity against human AD293 cells assessed as cell viability at 2.7 to 273 uM co-treated via microinjection with Cy5-BSA into nucleus and measured after 5 hrs by Cy5-BSA/PI staining based fluorescence analysis; details: ad293, 5 h, dose 2.7-273 µM
[2] = test system: AD293; assay: Cytotoxicity against human AD-293 cells assessed as morphologically intact viable cells at 2.7 to 273 uM co-treated via microinjection with Cy5-BSA into cytoplasm and measured after 5 hrs by Cy5-BSA/PI staining based fluorescence analysis; type: cell-based; details: ad293, 5 h, dose 2.7-273 µM
[3] = test system: AD293; assay: Cytotoxicity against human AD293 cells assessed as cell viability at 200 uM; type: cell-based; details: ad293, 200 µM
[4] = Inhibition of iNOS (unknown origin) and SPSB2 interaction assessed as binding affinity to murine SPSB2 immobilized on CM5 chip by SPR assay; set-up: species or system Mus musculus
[5] = Stability of the compound in human AD293 cells assessed as intact compound remaining at 20 uM measured after 24 hrs by LC-MS analysis; type: ADME, cell-based; details: read-out: Stabilty
[6] = Stability of the compound in human AD293 cells assessed as intact compound remaining at 20 uM measured after 5 hrs by LC-MS analysis; type: ADME, cell-based; details: read-out: Stabilty
[7] = test system: AD293; assay: Cytotoxicity against human AD293 cells assessed as cell viability at 2.7 to 273 uM co-treated via microinjection with Cy5-BSA into cytoplasm and measured after 5 hrs by Cy5-BSA/PI staining based fluorescence analysis; details: ad293, 5 h, dose 2.7-273 µM
[8] = Drug localization in cytosol of human AD293 cells at 7.3 uM treated via microinjection into cytoplasm measured up to 5 hrs by confocal microscopic analysis; type: ADME, subcellular

Structure (SMILES) | Activity [1] | Activity [2] | Activity [3] | Kd [4] [nM] | remaining at 24 h, 20 µM [5] [%] | remaining at 5 h, 20 µM [6] [%] | Activity [7] | Drug uptake [8]
CC[C@H](C)[C@@H]1NC(=O)[C@H](CC(=O)O)NC(=O)[C@H](Cc2c[nH]c3ccccc23)NC(=O)CCNC(=O)[C@H](CC(N)=O)NC(=O)[C@H](CC(N)=O)NC(=O)[C@H](CC(N)=O)NC1=O (cyclo(DINNN[βAla]W)) | Non-Toxic | Non-Toxic | Non-Toxic | 21 | 94.7 | 97.5 | Non-Toxic | 
CCN1/C(=C/C=C/C=C/C2=[N+](CCCCCC(=O)NCCCC[C@@H]3NC(=O)[C@H](CC(=O)O)NC(=O)[C@H](Cc4c[nH]c5ccccc45)NC(=O)CCNC(=O)[C@H](CC(N)=O)NC(=O)[C@H](CC(N)=O)NC(=O)[C@H](CC(N)=O)NC3=O)c3ccc(S(=O)(=O)[O-])cc3C2(C)C)C(C)(C)c2cc(S(=O)(=O)O)ccc21 (cyclo(DK(X1)NNN[βAla]W)) |  |  |  | 110 |  |  |  | Active
